{
  "source": "patent US20060251704A1",
  "about": "“Methods and devices for efficacious treatment of aphthous ulcers” (priority 2005, published 2006)",
  "origin": "cited, not measured here",
  "system": "aphthous ulcers (RAS)",
  "settings": "by the 6th day",
  "data": [
    {"compound": "CC(C)c1ccc2oc3nc(N)c(C(=O)O)cc3c(=O)c2c1", "note": "[amlexanox]", "values": [
      {"measurement": "patients with healed ulcers", "setting": "vehicle control 54.7%", "value": 65.6, "unit": "%"},
      {"measurement": "patients pain free", "setting": "patients with RAS, control group 72.8%", "value": 82.8, "unit": "%"}
    ]}
  ]
}
